Values of other authors in patent publication US6365601B1, “Process for extraction of piperine from piper species” (Council of Scientific and Industrial Research, priority 1999, dated 2002).

Conditions: Reen and Rashmet, J. Ethnopharmacol., 1997

In the case of `O=C(/C=C/C=C/c1ccc2c(c1)OCO2)N1CCCCC1` [Piperine], the “chemoprotective effect against procarcinogens” value is given as “potent chemoprotective effect”.
